Experiment [1] has as its target T1, human Cereblon WT GST-tagged protein (Homo sapiens, UniProt Q96SW2).
T1 construct: purchased CISBIO 64BDCRBNPEH
In words: CRBN-binding affinity, HTRF (CEREBLON BINDING kit). The settings on record: for inhibition at 0.5 µM: read-out: Inhibition Rate at 0.5 µM (%); for inhibition at 2 µM: read-out: Inhibition Rate at 2 µM (%). (In general: TR-FRET usually uses a lanthanide donor and a delayed reading to cut background.)

A further experiment deals with T2, WEE1 (Homo sapiens, UniProt P30291+Q96SW2).
T2 construct: effects of the compounds of the present disclosure on the expression of target proteins in cells; endogenous in cells; host or cells: human PBMCs (Milecell Biotechnologies)
In words: Western blot, degradation of substrate protein in hPBMCs. The experiment is classed as cell-based. The conditions noted are these: Western blot, 24 hours of compound treatment, compounds tested at 50 nM and 500 nM (concentration for the table not stated). Background: In western blotting, separated proteins are transferred to a membrane and probed.

The target in a further experiment is T3, IKZF1 (Homo sapiens, UniProt Q13422+Q96SW2).
T3 construct: effects of the compounds of the present disclosure on the expression of target proteins in cells; endogenous in cells; host or cells: human PBMCs (Milecell Biotechnologies)
Described as above. The experiment is classed as cell-based. The settings on record: Western blot, 24 hours of compound treatment, compounds tested at 50 nM and 500 nM (concentration for the table not stated).

The next experiment concerns the target T4, CK1α (Homo sapiens, UniProt P48729+Q96SW2).
T4 construct: effects of the compounds of the present disclosure on the expression of target proteins in cells; endogenous in cells; host or cells: human PBMCs (Milecell Biotechnologies)
Described as above. The experiment is classed as cell-based. The settings on record: Western blot, 24 hours of compound treatment, compounds tested at 50 nM and 500 nM (concentration for the table not stated).

Another experiment addresses T5, IKZF3 (Homo sapiens, UniProt Q96SW2+Q9UKT9).
T5 construct: effects of the compounds of the present disclosure on the expression of target proteins in cells; endogenous in cells; host or cells: human PBMCs (Milecell Biotechnologies)
The description is as above. The format is cell-based. The settings on record: Western blot, 24 hours of compound treatment, compounds tested at 50 nM and 500 nM (concentration for the table not stated).

For another experiment, the target named is T6, IKZF2 (Homo sapiens, UniProt Q96SW2+Q9UKS7).
T6 construct: effects of the compounds of the present disclosure on the expression of target proteins in cells; endogenous in cells; host or cells: human PBMCs (Milecell Biotechnologies)
The description is as above. The format is cell-based. The settings on record: Western blot, 24 hours of compound treatment, compounds tested at 50 nM and 500 nM (concentration for the table not stated).

The test system of a further experiment is GSPT1. Described as above. The format is cell-based, Human. The conditions noted are these: Western blot, 24 hours of compound treatment, compounds tested at 50 nM and 500 nM (concentration for the table not stated).

From patent EP4745135A1 (Gluetacs Therapeutics (Shanghai) Co., Ltd., priority 2023, dated 2025) come the findings set out here.

T2 sequence (P30291 whole entry): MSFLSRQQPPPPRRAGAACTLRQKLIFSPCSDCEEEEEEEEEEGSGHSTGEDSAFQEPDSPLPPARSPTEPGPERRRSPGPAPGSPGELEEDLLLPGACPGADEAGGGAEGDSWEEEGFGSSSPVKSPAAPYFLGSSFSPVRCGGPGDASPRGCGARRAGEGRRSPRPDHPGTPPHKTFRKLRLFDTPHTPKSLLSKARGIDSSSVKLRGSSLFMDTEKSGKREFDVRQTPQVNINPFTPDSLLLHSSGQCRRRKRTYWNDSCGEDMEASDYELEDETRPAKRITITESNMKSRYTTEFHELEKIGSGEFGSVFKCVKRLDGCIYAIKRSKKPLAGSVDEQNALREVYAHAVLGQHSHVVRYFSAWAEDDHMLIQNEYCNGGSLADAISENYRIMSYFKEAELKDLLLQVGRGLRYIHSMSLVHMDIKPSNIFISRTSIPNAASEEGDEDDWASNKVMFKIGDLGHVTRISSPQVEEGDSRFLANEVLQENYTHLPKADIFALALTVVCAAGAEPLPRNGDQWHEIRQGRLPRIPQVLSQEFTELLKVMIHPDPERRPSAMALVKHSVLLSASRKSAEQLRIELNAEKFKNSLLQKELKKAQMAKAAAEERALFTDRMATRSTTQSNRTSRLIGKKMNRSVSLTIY
T2 sequence (Q96SW2 whole entry): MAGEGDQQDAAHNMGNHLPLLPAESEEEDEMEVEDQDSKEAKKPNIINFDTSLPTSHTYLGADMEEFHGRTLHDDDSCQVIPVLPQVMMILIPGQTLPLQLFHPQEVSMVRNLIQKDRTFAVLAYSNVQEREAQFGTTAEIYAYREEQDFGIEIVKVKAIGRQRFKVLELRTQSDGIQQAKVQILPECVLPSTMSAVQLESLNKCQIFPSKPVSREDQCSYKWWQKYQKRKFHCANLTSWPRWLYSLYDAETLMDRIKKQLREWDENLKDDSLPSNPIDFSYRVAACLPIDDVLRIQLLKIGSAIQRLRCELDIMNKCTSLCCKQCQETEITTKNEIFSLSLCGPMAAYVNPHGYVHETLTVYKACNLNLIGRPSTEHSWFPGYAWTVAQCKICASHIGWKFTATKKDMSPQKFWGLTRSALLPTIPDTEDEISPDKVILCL
T2 sequence (Q16531 whole entry partner): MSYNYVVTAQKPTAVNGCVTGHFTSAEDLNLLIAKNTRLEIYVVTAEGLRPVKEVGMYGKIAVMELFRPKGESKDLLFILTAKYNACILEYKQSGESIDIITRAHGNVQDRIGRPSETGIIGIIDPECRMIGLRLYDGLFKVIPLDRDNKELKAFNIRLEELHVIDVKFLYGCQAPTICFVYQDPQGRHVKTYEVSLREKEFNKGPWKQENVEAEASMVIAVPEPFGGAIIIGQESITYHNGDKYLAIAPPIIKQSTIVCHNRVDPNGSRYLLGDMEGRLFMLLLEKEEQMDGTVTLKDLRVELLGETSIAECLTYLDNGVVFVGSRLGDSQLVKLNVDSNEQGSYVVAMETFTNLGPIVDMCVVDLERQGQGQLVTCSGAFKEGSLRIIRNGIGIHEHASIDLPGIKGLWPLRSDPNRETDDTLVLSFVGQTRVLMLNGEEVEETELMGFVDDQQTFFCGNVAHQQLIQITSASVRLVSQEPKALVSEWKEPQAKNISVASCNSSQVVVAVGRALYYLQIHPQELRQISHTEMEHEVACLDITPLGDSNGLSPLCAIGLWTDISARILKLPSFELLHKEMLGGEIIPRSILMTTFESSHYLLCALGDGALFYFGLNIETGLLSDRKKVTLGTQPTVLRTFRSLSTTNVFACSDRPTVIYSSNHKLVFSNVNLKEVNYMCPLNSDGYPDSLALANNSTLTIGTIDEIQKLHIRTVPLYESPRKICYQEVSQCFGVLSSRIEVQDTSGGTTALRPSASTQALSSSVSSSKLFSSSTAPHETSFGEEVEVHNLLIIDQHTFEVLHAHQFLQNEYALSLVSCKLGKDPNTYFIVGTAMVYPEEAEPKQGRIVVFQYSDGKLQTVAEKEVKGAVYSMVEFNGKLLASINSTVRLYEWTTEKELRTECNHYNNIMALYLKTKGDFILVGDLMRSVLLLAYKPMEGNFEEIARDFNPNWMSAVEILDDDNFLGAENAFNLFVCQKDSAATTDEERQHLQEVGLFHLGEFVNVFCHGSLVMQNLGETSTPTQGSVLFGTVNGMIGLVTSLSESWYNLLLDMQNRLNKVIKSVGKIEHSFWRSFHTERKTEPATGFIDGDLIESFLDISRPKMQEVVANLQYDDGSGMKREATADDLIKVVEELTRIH
T5 sequence (Q9UKT9 whole entry): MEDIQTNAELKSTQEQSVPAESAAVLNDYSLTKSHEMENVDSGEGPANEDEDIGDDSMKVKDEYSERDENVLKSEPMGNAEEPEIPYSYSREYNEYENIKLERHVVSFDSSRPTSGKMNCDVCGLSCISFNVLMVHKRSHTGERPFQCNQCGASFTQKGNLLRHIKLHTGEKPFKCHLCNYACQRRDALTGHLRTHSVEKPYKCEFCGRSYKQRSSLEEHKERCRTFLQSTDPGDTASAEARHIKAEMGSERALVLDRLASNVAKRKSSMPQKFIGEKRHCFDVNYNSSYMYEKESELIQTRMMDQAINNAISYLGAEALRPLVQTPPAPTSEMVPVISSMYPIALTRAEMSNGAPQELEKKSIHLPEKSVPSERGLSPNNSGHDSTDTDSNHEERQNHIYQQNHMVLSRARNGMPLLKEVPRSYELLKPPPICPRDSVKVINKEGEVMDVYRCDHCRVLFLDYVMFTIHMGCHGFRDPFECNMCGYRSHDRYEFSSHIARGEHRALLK
T5 sequence (Q96SW2 whole entry): as the sequence (Q96SW2 whole entry) above
T5 sequence (Q16531 whole entry partner): as the sequence (Q16531 whole entry partner) above
T4 sequence (P48729 whole entry): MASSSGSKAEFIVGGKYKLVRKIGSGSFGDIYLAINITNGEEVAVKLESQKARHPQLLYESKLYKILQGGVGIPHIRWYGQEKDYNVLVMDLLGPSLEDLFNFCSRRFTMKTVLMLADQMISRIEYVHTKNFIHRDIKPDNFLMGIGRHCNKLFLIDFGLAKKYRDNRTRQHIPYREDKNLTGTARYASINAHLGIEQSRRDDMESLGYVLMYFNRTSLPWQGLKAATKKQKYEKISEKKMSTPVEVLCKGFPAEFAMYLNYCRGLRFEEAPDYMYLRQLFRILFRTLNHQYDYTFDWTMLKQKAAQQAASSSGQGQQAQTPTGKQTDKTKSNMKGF
T4 sequence (Q96SW2 whole entry): as the sequence (Q96SW2 whole entry) above
T4 sequence (Q16531 whole entry partner): as the sequence (Q16531 whole entry partner) above
T3 sequence (Q13422 whole entry): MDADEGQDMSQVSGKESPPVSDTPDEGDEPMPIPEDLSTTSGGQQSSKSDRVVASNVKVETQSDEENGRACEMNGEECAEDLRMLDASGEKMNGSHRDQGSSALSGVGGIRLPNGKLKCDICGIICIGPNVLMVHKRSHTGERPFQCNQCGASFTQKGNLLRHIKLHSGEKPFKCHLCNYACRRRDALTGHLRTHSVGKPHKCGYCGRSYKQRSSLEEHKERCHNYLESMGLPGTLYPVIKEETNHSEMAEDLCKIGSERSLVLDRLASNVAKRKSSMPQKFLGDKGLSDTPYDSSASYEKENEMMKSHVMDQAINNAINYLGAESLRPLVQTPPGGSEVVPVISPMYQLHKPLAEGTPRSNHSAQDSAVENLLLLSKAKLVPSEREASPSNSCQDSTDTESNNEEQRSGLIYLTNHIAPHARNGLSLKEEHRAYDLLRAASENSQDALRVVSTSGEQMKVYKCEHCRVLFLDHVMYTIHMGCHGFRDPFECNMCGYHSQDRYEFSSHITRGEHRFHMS
T3 sequence (Q96SW2 whole entry): as the sequence (Q96SW2 whole entry) above
T3 sequence (Q16531 whole entry partner): as the sequence (Q16531 whole entry partner) above
T6 sequence (Q9UKS7 whole entry): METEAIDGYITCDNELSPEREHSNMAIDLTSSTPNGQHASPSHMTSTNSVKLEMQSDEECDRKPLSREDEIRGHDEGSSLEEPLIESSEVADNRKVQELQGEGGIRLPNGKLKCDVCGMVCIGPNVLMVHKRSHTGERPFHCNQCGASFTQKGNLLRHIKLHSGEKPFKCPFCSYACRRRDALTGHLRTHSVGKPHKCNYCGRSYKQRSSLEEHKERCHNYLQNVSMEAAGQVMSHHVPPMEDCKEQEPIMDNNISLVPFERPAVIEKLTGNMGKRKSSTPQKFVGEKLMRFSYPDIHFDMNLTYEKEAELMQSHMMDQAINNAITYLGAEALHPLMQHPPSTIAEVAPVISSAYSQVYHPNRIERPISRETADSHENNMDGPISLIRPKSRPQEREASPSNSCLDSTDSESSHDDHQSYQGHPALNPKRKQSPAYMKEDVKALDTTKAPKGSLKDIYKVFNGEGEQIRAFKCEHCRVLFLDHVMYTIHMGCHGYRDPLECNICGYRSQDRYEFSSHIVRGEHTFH
T6 sequence (Q96SW2 whole entry): as the sequence (Q96SW2 whole entry) above
T6 sequence (Q16531 whole entry partner): as the sequence (Q16531 whole entry partner) above
T1 sequence (Q96SW2 whole entry): as the sequence (Q96SW2 whole entry) above

Take `Cc1cccc(N2CCN(Cc3cccc4c3CN(C3CCC(=O)NC3=O)C4=S)CC2)n1` (centres unmarked) [GT-08692, 3-(4-((4-(6-methylpyridin-2-yl)piperazin-1-yl)methyl)-1-thioxoisoindolin-2-yl)piperidine-2,6-dione]: in experiment [1], the inhibition at 0.5 µM lay in the range of 53 to 60% and the inhibition at 2 µM fell in the range of 80 to 100%. In addition, at WEE1, the “Wee1 substrate protein remaining %” value was “A (0% ≤ substrate protein remaining % ≤ 80%)”. Moreover, at IKZF1, the “IKZF 1 substrate protein remaining %” value was “B (80%< substrate protein remaining %≤ 100%)”. Also, the “CK1α substrate protein remaining %” value at CK1α is given as “B (80%< substrate protein remaining %≤ 100%)”. Moreover, the “IKZF3 substrate protein remaining %” value on IKZF3 is given as “B (80%< substrate protein remaining %≤ 100%)”. In addition, at IKZF2, the “IKZF2 substrate protein remaining %” value was “B (80%< substrate protein remaining %≤ 100%)”. The “GSPT1 substrate protein remaining %” value with GSPT1 was “B (80%< substrate protein remaining %≤ 100%)”.
As for `O=C1CCC(N2Cc3c(CN4CCN(c5cccc(Cl)n5)CC4)cccc3C2=S)C(=O)N1` (centres unmarked) [GT-08693, 3-(4-((4-(6-chloropyridin-2-yl)piperazin-1-yl)methyl)-1-thioxoisoindolin-2-yl)piperidine-2,6-dione], in experiment [1], the inhibition at 0.5 µM lay within 60 to 80% and the inhibition at 2 µM was 80 to 100%. Also, the “Wee1 substrate protein remaining %” value on WEE1 was “A (0% ≤ substrate protein remaining % ≤ 80%)”. In addition, on IKZF1, the “IKZF 1 substrate protein remaining %” value is “B (80%< substrate protein remaining %≤ 100%)”. The “CK1α substrate protein remaining %” value at CK1α is “B (80%< substrate protein remaining %≤ 100%)”. In addition, the “IKZF3 substrate protein remaining %” value on IKZF3 is on record as “B (80%< substrate protein remaining %≤ 100%)”. Moreover, the “IKZF2 substrate protein remaining %” value at IKZF2 is given as “B (80%< substrate protein remaining %≤ 100%)”. The “GSPT1 substrate protein remaining %” value in the experiment with GSPT1 is given as “B (80%< substrate protein remaining %≤ 100%)”.
`O=C1CCC(N2Cc3c(CN4CCN(c5ccc(Cl)cn5)CC4)cccc3C2=S)C(=O)N1` (centres unmarked) [GT-08694, 3-(4-((4-(5-chloropyridin-2-yl)piperazin-1-yl)methyl)-1-thioxoisoindolin-2-yl)piperidine-2,6-dione]: in experiment [1], the inhibition at 0.5 µM was in the range of 40 to 53% and the inhibition at 2 µM lay within 60 to 80%. The “Wee1 substrate protein remaining %” value at WEE1 was “A (0% ≤ substrate protein remaining % ≤ 80%)”. The “IKZF 1 substrate protein remaining %” value on IKZF1 is listed as “B (80%< substrate protein remaining %≤ 100%)”. Further, the “CK1α substrate protein remaining %” value at CK1α is given as “B (80%< substrate protein remaining %≤ 100%)”. In addition, the “IKZF3 substrate protein remaining %” value at IKZF3 is recorded as “B (80%< substrate protein remaining %≤ 100%)”. Moreover, the “IKZF2 substrate protein remaining %” value at IKZF2 is listed as “B (80%< substrate protein remaining %≤ 100%)”. Further, the “GSPT1 substrate protein remaining %” value with GSPT1 was “A (0% ≤ substrate protein remaining % ≤ 80%)”.
Turning to `O=C1CCC(N2Cc3c(CN4CCN(c5ncccc5Cl)CC4)cccc3C2=S)C(=O)N1` (centres unmarked) [GT-08696, 3-(4-((4-(3-chloropyridin-2-yl)piperazin-1-yl)methyl)-1-thioxoisoindolin-2-yl)piperidine-2,6-dione], in experiment [1], the inhibition at 0.5 µM was 60 to 80% and the inhibition at 2 µM is 80 to 100%. For the same compound, the “Wee1 substrate protein remaining %” value at WEE1 is “A (0% ≤ substrate protein remaining % ≤ 80%)”. Further, on IKZF1, the “IKZF 1 substrate protein remaining %” value is “B (80%< substrate protein remaining %≤ 100%)”. Besides, the “CK1α substrate protein remaining %” value on CK1α was “B (80%< substrate protein remaining %≤ 100%)”. Moreover, the “IKZF3 substrate protein remaining %” value at IKZF3 is “B (80%< substrate protein remaining %≤ 100%)”. At IKZF2, the “IKZF2 substrate protein remaining %” value was “B (80%< substrate protein remaining %≤ 100%)”. Besides, in the experiment with GSPT1, the “GSPT1 substrate protein remaining %” value was “B (80%< substrate protein remaining %≤ 100%)”.
As to `O=C1CCC(N2Cc3c(CN4CCN(c5ncccc5F)CC4)cccc3C2=S)C(=O)N1` (centres unmarked) [GT-08697, 3-(4-((4-(3-fluoropyridin-2-yl)piperazin-1-yl)methyl)-1-thioxoisoindolin-2-yl)piperidine-2,6-dione], in experiment [1], the inhibition at 0.5 µM lay in the range of 60 to 80% and the inhibition at 2 µM lay within 80 to 100%. Also, on WEE1, the “Wee1 substrate protein remaining %” value is “A (0% ≤ substrate protein remaining % ≤ 80%)”. Further, at IKZF1, the “IKZF 1 substrate protein remaining %” value was “B (80%< substrate protein remaining %≤ 100%)”. The “CK1α substrate protein remaining %” value on CK1α is recorded as “B (80%< substrate protein remaining %≤ 100%)”. The “IKZF3 substrate protein remaining %” value at IKZF3 is “B (80%< substrate protein remaining %≤ 100%)”. Moreover, the “IKZF2 substrate protein remaining %” value on IKZF2 is on record as “B (80%< substrate protein remaining %≤ 100%)”. For the same compound, the “GSPT1 substrate protein remaining %” value in the experiment with GSPT1 is “B (80%< substrate protein remaining %≤ 100%)”.
Regarding `O=C1CCC(N2Cc3c(CN4CCN(c5cccc(F)n5)CC4)cccc3C2=S)C(=O)N1` (centres unmarked) [GT-08698, 3-(4-((4-(6-fluoropyridin-2-yl)piperazin-1-yl)methyl)-1-thioxoisoindolin-2-yl)piperidine-2,6-dione], in experiment [1], the inhibition at 0.5 µM lay in the range of 60 to 80% and the inhibition at 2 µM was 80 to 100%. For the same compound, on WEE1, the “Wee1 substrate protein remaining %” value was “A (0% ≤ substrate protein remaining % ≤ 80%)”. At IKZF1, the “IKZF 1 substrate protein remaining %” value is listed as “B (80%< substrate protein remaining %≤ 100%)”. The “CK1α substrate protein remaining %” value at CK1α was “B (80%< substrate protein remaining %≤ 100%)”. Moreover, the “IKZF3 substrate protein remaining %” value at IKZF3 is recorded as “B (80%< substrate protein remaining %≤ 100%)”. In addition, the “IKZF2 substrate protein remaining %” value on IKZF2 was “B (80%< substrate protein remaining %≤ 100%)”. Moreover, in the experiment on GSPT1, the “GSPT1 substrate protein remaining %” value is “A (0% ≤ substrate protein remaining % ≤ 80%)”.
As to `O=C1CCC(N2Cc3c(CN4CCN(c5ccc(F)cn5)CC4)cccc3C2=S)C(=O)N1` (centres unmarked) [GT-08699, 3-(4-((4-(5-fluoropyridin-2-yl)piperazin-1-yl)methyl)-1-thioxoisoindolin-2-yl)piperidine-2,6-dione], in experiment [1], the inhibition at 0.5 µM was in the range of 53 to 60% and the inhibition at 2 µM lay within 80 to 100%. Further, at WEE1, the “Wee1 substrate protein remaining %” value is given as “A (0% ≤ substrate protein remaining % ≤ 80%)”. Besides, the “IKZF 1 substrate protein remaining %” value on IKZF1 was “B (80%< substrate protein remaining %≤ 100%)”. Further, the “CK1α substrate protein remaining %” value on CK1α is “B (80%< substrate protein remaining %≤ 100%)”. The “IKZF3 substrate protein remaining %” value at IKZF3 is “B (80%< substrate protein remaining %≤ 100%)”. In addition, the “IKZF2 substrate protein remaining %” value at IKZF2 is “B (80%< substrate protein remaining %≤ 100%)”. The “GSPT1 substrate protein remaining %” value with GSPT1 was “B (80%< substrate protein remaining %≤ 100%)”.
For `O=C1CCC(N2Cc3c(CN4CCN(c5cccc(C(F)(F)F)n5)CC4)cccc3C2=S)C(=O)N1` (centres unmarked) [GT-08701, 3-(1-thioxo-4-((4-(6-(trifluoromethyl)pyridin-2-yl)piperazin-1-yl)methyl)isoindolin-2-yl)piperidine-2,6-dione], in experiment [1], the inhibition at 0.5 µM fell in the range of 40 to 53% and the inhibition at 2 µM lay in the range of 80 to 100%. The “Wee1 substrate protein remaining %” value on WEE1 is given as “A (0% ≤ substrate protein remaining % ≤ 80%)”. Besides, the “IKZF 1 substrate protein remaining %” value at IKZF1 is recorded as “B (80%< substrate protein remaining %≤ 100%)”. For the same compound, the “CK1α substrate protein remaining %” value on CK1α is “B (80%< substrate protein remaining %≤ 100%)”. For the same compound, the “IKZF3 substrate protein remaining %” value on IKZF3 is “B (80%< substrate protein remaining %≤ 100%)”. For the same compound, the “IKZF2 substrate protein remaining %” value at IKZF2 was “B (80%< substrate protein remaining %≤ 100%)”. In addition, the “GSPT1 substrate protein remaining %” value in the experiment on GSPT1 is listed as “B (80%< substrate protein remaining %≤ 100%)”.
With `O=C1CCC(N2Cc3c(CN4CCN(c5ncc(Cl)cc5Cl)CC4)cccc3C2=S)C(=O)N1` (centres unmarked) [GT-08703, 3-(4-((4-(3,5-dichloropyridin-2-yl)piperazin-1-yl)methyl)-1-thioxoisoindolin-2-yl)piperidine-2,6-dione], in experiment [1], the inhibition at 0.5 µM is 53 to 60% and the inhibition at 2 µM was 60 to 80%. Moreover, the “Wee1 substrate protein remaining %” value at WEE1 is listed as “A (0% ≤ substrate protein remaining % ≤ 80%)”. Besides, the “IKZF 1 substrate protein remaining %” value on IKZF1 is given as “B (80%< substrate protein remaining %≤ 100%)”. At CK1α, the “CK1α substrate protein remaining %” value is given as “B (80%< substrate protein remaining %≤ 100%)”. Moreover, the “IKZF3 substrate protein remaining %” value at IKZF3 was “B (80%< substrate protein remaining %≤ 100%)”. For the same compound, the “IKZF2 substrate protein remaining %” value at IKZF2 is reported as “B (80%< substrate protein remaining %≤ 100%)”. Also, the “GSPT1 substrate protein remaining %” value with GSPT1 was “B (80%< substrate protein remaining %≤ 100%)”.
Turning to `O=C1CCC(N2Cc3c(CN4CCN(c5nccc(I)c5F)CC4)cccc3C2=S)C(=O)N1` (centres unmarked) [GT-08704, 3-(4-((4-(3-fluoro-4-iodopyridin-2-yl)piperazin-1-yl)methyl)-1-thioxoisoindolin-2-yl)piperidine-2,6-dione], in experiment [1], the inhibition at 0.5 µM was in the range of 40 to 53% and the inhibition at 2 µM was 80 to 100%. Further, the “Wee1 substrate protein remaining %” value at WEE1 is “A (0% ≤ substrate protein remaining % ≤ 80%)”. For the same compound, the “IKZF 1 substrate protein remaining %” value on IKZF1 is given as “B (80%< substrate protein remaining %≤ 100%)”. At CK1α, the “CK1α substrate protein remaining %” value is reported as “B (80%< substrate protein remaining %≤ 100%)”. Further, at IKZF3, the “IKZF3 substrate protein remaining %” value is reported as “A (0% ≤ substrate protein remaining % ≤ 80%)”. In addition, the “IKZF2 substrate protein remaining %” value at IKZF2 is given as “A (0% ≤ substrate protein remaining % ≤ 80%)”. In addition, the “GSPT1 substrate protein remaining %” value with GSPT1 is reported as “B (80%< substrate protein remaining %≤ 100%)”.

For orientation: inhibition means the share of the control response that was lost under treatment.
